PMC9029323, “In Silico Identification of Novel Inhibitors Targeting the Homodimeric Interface of Superoxide Dismutase from the Dental Pathogen Streptococcus mutans” (Antioxidants, 2022)

How the values were obtained:
SmSOD = biological target: T1, SmSOD (Streptococcus mutans serotype c, UniProt P09738); experiment: SOD activity assay (inhibition of cytochrome c reduction, xanthine/xanthine oxidase method) with SmSOD; type: biochemical; details: for remaining activity at 50 µM: 50 µM compound; for remaining activity at 50 µM / remaining activity at 100 µM / IC50: ALS-31 derivatives, Table 2; for remaining activity at 50 µM / remaining activity at 100 µM: read-out: Residual SOD Activity (%) in the Presence of [Compound]; for remaining activity at 100 µM: 100 µM compound; for IC50: SmSOD activity, read-out: IC50; for effect on SmSOD activity (in words): screening concentrations or inhibition profile up to 300 µM
T1 construct: His-tail; made in house; host or cells: Escherichia coli BL21(DE3), vector vSmSOD (pET-22b(+)-derived)
T1 sequence (P09738 2-203): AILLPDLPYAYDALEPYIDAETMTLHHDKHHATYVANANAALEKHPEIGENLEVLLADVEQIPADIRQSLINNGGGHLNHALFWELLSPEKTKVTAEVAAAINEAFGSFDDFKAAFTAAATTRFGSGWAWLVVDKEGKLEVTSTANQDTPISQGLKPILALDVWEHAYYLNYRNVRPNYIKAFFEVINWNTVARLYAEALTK
Excerpt: Purified recombinant forms of SmSOD and StSOD were obtained through a heterologous expression system constituted by the Escherichia coli BL21(DE3) strain transformed with appropriate expression vectors, vSmSOD [11] or vStSOD [12]. These pET-22b(+)- or pET-28b(+)-derived plasmids led to the production of recombinant forms of SmSOD or StSOD, respectively fused to a His-tail, useful for their one-step purification by affinity chromatography, as previously described [11, 12]. The improvement of Mn uptake by SmSOD was realised as previously described [11, 12, 13]. The resulting metal (Fe and Mn) content in the cambialistic enzyme was determined by graphite furnace atomic absorption spectrometry with a Shimadzu ACS-6100 auto sampler [46]. Fe-SOD from Escherichia coli (cat. SRP6107) and the Cu/Zn-SOD from bovine erythrocytes (cat. 574594) were purchased from Sigma–Aldrich. A recombinant form of the eukaryal Mn–SOD from rat mitochondria was prepared as previously described [19]. Protein concentration was determined by the Bradford method, using bovine serum albumin as standard [47]. […] One unit of SOD activity was defined as the amount of enzyme that caused 50% inhibition of cytochrome c reduction.

[1] = system: Streptococcus mutans ATCC-700610; experiment: Broth micro-dilution antibacterial assay (planktonic growth); type: cell-based; details: 24 h
Method: (§1) The bacterial strain used for antimicrobial assays was Streptococcus mutans ATCC-700610. The strain was stored in 15% (v/v) glycerol stocks at −80 °C. Before each experiment, cells were subcultured from the stocks into Trypticase Soy Agar (TSA, cat. PA-254051.06) with 5% Sheep Blood (Becton Dickinson, Sparks, NV, USA) plates at 37 °C in 5% CO2 atmosphere for 48 h.
The antibacterial activity of compounds ALS-31 or ALS-31-9 was assayed in S. mutans cultures by a standard broth micro-dilution method in 96-well polystyrene plates using Brain-Heart Infusion broth (BHI, cat. 255003, Becton Dickinson, Sparks, NV, USA). One hundred microliters of bacterial suspension adjusted to approximately 1.5 × 10^6 CFU/mL were incubated with 100 µL of serial dilutions of the compounds dissolved in final 1.0% (v/v) DMSO as a vehicle. The plates were incubated at 37 °C in 5% CO2 atmosphere for 24 h under shaking (300 rpm). The medium turbidity was measured by a spectrophotometer at 595 nm (Bio-Rad Laboratories Inc., Hercules, CA, USA). Compound-free wells in 1.0% (v/v) DMSO were used as controls (100% planktonic growth), and antibacterial activity was expressed as a percentage of residual growth. Chlorhexidine acetate (CHX, cat. 51094, Sigma-Aldrich, St. Louis, MO, USA) solution (1 mg/mL) was prepared and included as control for the assay of S. mutans’ susceptibility (MIC referred to [51]). Each compound was tested in triplicate; each experiment was performed twice.

[2] = system: Streptococcus mutans ATCC-700610; experiment: Crystal violet staining biofilm biomass assay; type: cell-based; details: Streptococcus mutans, ATCC700610, 24 h, read-out: inhibition of biofilm biomass formation
Method: as §1
The crystal violet (CV) staining method was used to measure biofilm biomass formed in flat-bottomed 96-well microplates in the presence of ALS-31 or ALS-31-9, as described by Stepanović et al., with some modifications. A bacterial suspension of approximately 1.5 × 10^6 CFU/mL in BHI supplemented with 1% (w/v) glucose was prepared, and 100-µL aliquots of this suspension were incubated with 100 µL of serial dilutions of each compound. The microplate was incubated at 37 °C for 24 h, after which the non-adherent cells were gently aspirated and the wells gently rinsed with PBS (Sigma–Aldrich). The adhered biofilm was dried at 60 °C for 30 min and subsequently stained with 0.1% (w/v) crystal violet solution for 30 min. After washing with PBS and solubilization with absolute ethanol to release the dye from the biofilm, the plate was read at 570 nm in a spectrophotometer. The absorbance recorded was related to the amount of biofilm produced. The reduction in the mass of the biofilm was expressed as a percentage by using the formula [(Ac-At)/Ac] × 100, where Ac is the OD570 for the control wells and At is the OD570 in the presence of the tested compound.

Compound	remaining activity at 50 µM (SmSOD) [%]	remaining activity at 100 µM (SmSOD) [%]	IC50 (SmSOD) [µM]	effect on SmSOD activity (in words) (SmSOD)	further results
CSCCC(NC(=O)COc1ccc2c3c(c(=O)oc2c1)CCC3)C(=O)O (stereo not drawn) [ALS-31-1]	104	97.2	–	–	–
O=C(O)CCC(NC(=O)COc1ccc2c3c(c(=O)oc2c1)CCC3)C(=O)O (stereo not drawn) [ALS-31-2]	89.8	113	–	–	–
CSCCC(NC(=O)CCNC(=O)COc1ccc2c3c(c(=O)oc2c1)CCC3)C(=O)O (stereo not drawn) [ALS-31-3]	78.8	104	–	–	–
CSCCC(NC(=O)COc1cc(C)cc2oc(=O)c3c(c12)CCC3)C(=O)NCCC(=O)O (stereo not drawn) [ALS-31-4]	92.6	96.8	–	–	–
CC(NC(=O)COc1ccc2c3c(c(=O)oc2c1)CCCC3)C(=O)NCC(=O)NCC(=O)O (stereo not drawn) [ALS-31-5]	93.4	99.6	–	–	–
O=C(O)CCCNC(=O)COc1ccc2c3c(c(=O)oc2c1)CCCC3 [ALS-31-6]	75.1	78	127 ± 12	dose-dependent reduction	–
O=C(O)CCNC(=O)COc1ccc2c3c(c(=O)oc2c1)CCCC3 [ALS-31-7]	95.4	125	–	–	–
CSCCC(NC(=O)CCNC(=O)COc1cc2oc(=O)c3c(c2cc1C)CCCC3)C(=O)O (stereo not drawn) [ALS-31-8]	69.2	76.9	292 ± 30	dose-dependent reduction	–
CCCC(NC(=O)COc1ccc2c3c(c(=O)oc2c1)CCCC3)C(=O)NCCCC(=O)O (stereo not drawn) [ALS-31-9]	65.3	50.3	64 ± 15	dose-dependent reduction	percentage of planktonic growth of S. mutans ([1]; 54 µM): 79.0 ± 4.6%; percentage of planktonic growth of S. mutans ([1]; 108 µM): 39.5 ± 2.1%; planktonic growth of S. mutans compared with 108 µM ([1]; 216 µM): no further reduction; concentration up to which no antimicrobial activity is displayed in S. mutans suspensions [1]: ≤ 25 µM; inhibition at 13.5 µM ([2]; 13.5 µM): 29.4%; inhibition at 27.3 µM ([2]; 27.3 µM): 62.1%; improved inhibition power on SmSOD compared to lead ALS-31 (SmSOD; ratio of IC50 values): 2.5 fold
CSCCC(NC(=O)COc1ccc2c3c(c(=O)oc2c1)CCCC3)C(=O)O (stereo not drawn) [ALS-31-10]	75	68.9	139 ± 8	dose-dependent reduction	–
CCCC(NC(=O)COc1ccc2c3c(c(=O)oc2c1)CCCC3)C(=O)O (stereo not drawn) [ALS-31-11]	83.7	125	–	–	–
O=C(O)CNC(=O)CNC(=O)COc1ccc2c3c(c(=O)oc2c1)CCCC3 [ALS-31-12]	75.6	125	–	–	–
